What was measured:
Assay in all cases: relative viability (nuclei count vs DMSO), 5 days (fraction); higher = more cells survive
[1] = compound: C1=CC=C(C(=C1)C2=CC=C(C=C2)C3=CSC4=C3C(=C(C(=O)N4)C#N)O)O + COc1cccc2cc(-c3nc([C@H]4CC[C@H](C(=O)O)CC4)n4ncnc(N)c34)[nH]c12 [OSI-027] (partner 0.5 µM)
Summary of the method: (§1)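 For relative viability, nuclei counts in treated wells were divided by those in vehicle wells. Lung cancer cell lines had been pin-tool dosed in 1536-well plates the day after seeding and cultured for 5 days, then fixed and stained in one step (final 0.05% Triton X-100, 1% formaldehyde, 1 ug/ml Hoechst) and imaged at 4×. Doses were one drug alone or a fixed anchor-drug dose plus five library-drug doses (not always all listed) in √10 steps, and values are duplicate-plate medians.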

TGX 221 + Tozasertib = compound: CC1=CN2C(=O)C=C(N=C2C(=C1)C(C)NC3=CC=CC=C3)N4CCOCC4 [TGX 221] + Cc1cc(Nc2cc(N3CCN(C)CC3)nc(Sc3ccc(NC(=O)C4CC4)cc3)n2)n[nH]1 [Tozasertib] (partner 0.1 µM)
Summary of the method: as §1

[2] = compound: O=C(CCCCCCNC(=O)c1cnc(N(c2ccccc2)c2ccccc2)nc1)NO [Ricolinostat] + C[C@@H](Oc1cc(-c2cnn(C3CCNCC3)c2)cnc1N)c1c(Cl)ccc(F)c1Cl [Crizotinib] (partner 1 µM)
Summary of the method: as §1

[3] = compound: O=C(CCCCCCNC(=O)c1cnc(N(c2ccccc2)c2ccccc2)nc1)NO [Ricolinostat] + O=C(CCCCCCC(=O)Nc1ccccc1)NO [Vorinostat] (partner 1 µM)
Summary of the method: as §1

Row | Cell Line | relative viability ([1]; first compound 0.08 µM) | relative viability ([1]; first compound 0.253 µM) | relative viability ([1]; first compound 0.8 µM) | relative viability ([1]; first compound 2.53 µM) | relative viability ([1]; first compound 8 µM) | relative viability (TGX 221 + Tozasertib; first compound 0.08 µM) | relative viability (TGX 221 + Tozasertib; first compound 0.253 µM) | relative viability (TGX 221 + Tozasertib; first compound 0.8 µM) | relative viability (TGX 221 + Tozasertib; first compound 2.53 µM) | relative viability (TGX 221 + Tozasertib; first compound 8 µM) | relative viability ([2]; first compound 0.08 µM) | relative viability ([2]; first compound 0.253 µM) | relative viability ([2]; first compound 2.53 µM) | relative viability ([3]; first compound 0.08 µM) | relative viability ([3]; first compound 0.253 µM) | relative viability ([3]; first compound 0.8 µM) | relative viability ([3]; first compound 2.53 µM) | relative viability ([2]; first compound 0.8 µM)
1 | NCI-H1975 | 0.535 | 0.823 | 0.689 | 0.709 | 0.676 | 0.759 | 0.685 | 0.761 | 0.569 | 0.382 | 1.01 | 0.954 | 0.884 | 0.655 | 0.671 | 0.566 | 0.609 | 
2 | NCI-H838 | 0.379 | 0.394 | 0.388 | 0.342 | 0.354 | 0.276 | 0.257 | 0.282 | 0.247 | 0.192 | 0.672 | 0.896 | 0.731 | 0.725 | 0.689 | 0.582 | 0.315 | 0.899
3 | NCI-H2085 | 0.866 | 1.02 | 0.661 | 0.627 | 0.512 | 0.792 | 0.729 | 0.598 | 0.541 | 0.427 |  | 0.81 | 0.848 |  | 0.751 | 0.731 | 0.631 | 0.819
4 | NCI-H3122 | 0.836 | 1.07 | 1.09 | 1.33 | 0.774 | 0.368 | 0.402 | 0.372 | 0.34 | 0.379 | 0.219 | 0.307 | 0.336 | 0.966 | 0.848 | 0.853 | 0.708 | 0.326
5 | HCC-15 | 0.667 | 0.735 | 0.699 | 0.704 | 0.571 | 0.438 | 0.463 | 0.407 | 0.323 | 0.237 | 0.775 | 0.801 | 0.84 | 0.768 | 0.746 | 0.691 | 0.618 | 0.799
6 | LU99A | 0.3 | 0.263 | 0.27 | 0.345 | 0.301 | 0.24 | 0.274 | 0.258 | 0.282 | 0.276 | 0.581 | 0.604 | 0.409 | 0.513 | 0.473 | 0.462 | 0.326 | 0.38
7 | UMC-11 | 0.429 | 0.641 | 0.503 | 0.446 | 0.437 | 0.183 | 0.195 | 0.204 | 0.203 | 0.194 | 0.544 | 0.627 | 0.218 | 0.389 | 0.377 | 0.265 | 0.187 | 0.561
8 | NCI-H2405 | 0.648 | 0.656 | 0.607 | 0.679 | 0.65 | 0.737 | 0.771 | 0.693 | 0.745 | 0.697 | 0.735 | 0.804 | 0.876 | 0.854 | 1.02 | 0.379 | 0.767 | 0.838
9 | NCI-H1915 | 0.645 | 0.622 |  | 0.657 | 0.534 | 0.399 | 0.406 | 0.422 | 0.389 | 0.377 | 0.853 | 0.868 | 0.809 | 0.468 | 0.51 | 0.467 | 0.326 | 0.882

— the supplement of paper PMC10307832
